Measured values from patent US10750743B2, “Pyridazinone herbicides” (E.I. DU PONT DE NEMOURS AND COMPANY, priority 2015, dated 2020).

Experiments:
Format in all cases: in vivo
[1] = test system: blackgrass (Alopecurus myosuroides); test: Test A postemergence application, visual injury rating; conditions: 0 to 100 scale, 0 no effect, 100 complete control
Summary of the method: (§1)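 Seeds sown in a loam soil–sand blend received a directed preemergence soil spray of test chemical in a non-phytotoxic solvent mixture with surfactant. Postemergence plants were sprayed at 2 to 10 cm, one- to two-leaf stage. After approximately 10 d in greenhouse, injury was visually rated 0 (no effect) to 100 (complete control) against untreated controls.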

[2] = test system: ryegrass, It. (Italian ryegrass, Lolium multiflorum); test: as above; conditions: for Plant response rating (0 to 100 scale), Ryegrass, It.: 31 g ai/ha, 0 is no effect, 100 is complete control; for Ryegrass, It. plant response rating: 125 g ai/ha, 0 to 100 scale, 0 no effect, 100 complete control
Summary of the method: as §1

[3] = test system: wheat (Triticum aestivum); test: as above; conditions: for Plant response rating (0 to 100 scale), Wheat: 31 g ai/ha, 0 is no effect, 100 is complete control; for Wheat plant response rating: 125 g ai/ha, 0 to 100 scale, 0 no effect, 100 complete control
Summary of the method: as §1

[4] = test system: pigweed (Amaranthus retroflexus); test: as above; conditions: for Plant response rating (0 to 100 scale), Pigweed: 31 g ai/ha, 0 is no effect, 100 is complete control; for Pigweed plant response rating: 125 g ai/ha, 0 to 100 scale, 0 no effect, 100 complete control
Summary of the method: as §1

kochia (Kochia scoparia) [5] = test: as above; conditions: for Plant response rating (0 to 100 scale), Kochia: 31 g ai/ha, 0 is no effect, 100 is complete control; for Kochia plant response rating: 125 g ai/ha, 0 to 100 scale, 0 no effect, 100 complete control
Summary of the method: as §1

Foxtail, Green [6] = test: as above; conditions: for Plant response rating (0 to 100 scale), Foxtail, Green: 31 g ai/ha, 0 is no effect, 100 is complete control; for Foxtail, Green plant response rating: 125 g ai/ha, 0 to 100 scale, 0 no effect, 100 complete control
Summary of the method: as §1

corn (Zea mays) = test: as above; conditions: for Plant response rating (0 to 100 scale), Corn: 31 g ai/ha, 0 is no effect, 100 is complete control; for Corn plant response rating: 125 g ai/ha, 0 to 100 scale, 0 no effect, 100 complete control
Summary of the method: as §1

[7] = test system: ragweed (common ragweed, Ambrosia elatior); test: as above; conditions: for Plant response rating (0 to 100 scale), Ragweed: 31 g ai/ha, 0 is no effect, 100 is complete control; for Ragweed plant response rating: 125 g ai/ha, 0 to 100 scale, 0 no effect, 100 complete control
Summary of the method: as §1

[8] = test system: barnyardgrass (Echinochloa crus-galli); test: as above; conditions: 0 to 100 scale, 0 no effect, 100 complete control
Summary of the method: as §1

[9] = test system: galium (catchweed bedstraw, Galium aparine); test: as above; conditions: for Plant response rating (0 to 100 scale), Galium: 31 g ai/ha, 0 is no effect, 100 is complete control; for Galium plant response rating: 125 g ai/ha, 0 to 100 scale, 0 no effect, 100 complete control
Summary of the method: as §1

rice (Oryza sativa) = test: Test B flooded paddy test, visual rating; conditions: Flood, 250 g ai/ha, applied to paddy water, rated after 13 to 15 d
Summary of the method: (§2)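 Plants at the 2-leaf stage were flooded to 3 cm above soil, and test compounds were applied directly into the paddy water, which was held at that depth throughout. After 13 to 15 d in a greenhouse, injury was rated visually against untreated controls on a 0–100 scale (0 no effect, 100 complete control).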

[10] = test system: sedge, umbrella (small-flower umbrella sedge, Cyperus difformis); test: Test B flooded paddy test, visual rating; conditions: Flood, 250 g ai/ha, applied to paddy water, rated after 13 to 15 d
Summary of the method: as §2

[11] = test system: ducksalad (Heteranthera limosa); test: Test B flooded paddy test, visual rating; conditions: Flood, 250 g ai/ha, applied to paddy water, rated after 13 to 15 d
Summary of the method: as §2

[12] = test system: barnyardgrass (Echinochloa crus-galli); test: Test B flooded paddy test, visual rating; conditions: Flood, 250 g ai/ha, applied to paddy water, rated after 13 to 15 d
Summary of the method: as §2

[13] = test system: ryegrass, It. (Italian ryegrass, Lolium multiflorum); test: Test A preemergence, directed soil spray, visual injury rating; conditions: 0 is no effect, 100 is complete control
Summary of the method: as §1

[14] = test system: pigweed (Amaranthus retroflexus); test: as above; conditions: 0 is no effect, 100 is complete control
Summary of the method: as §1

kochia (Kochia scoparia) [15] = test: as above; conditions: 0 is no effect, 100 is complete control
Summary of the method: as §1

Foxtail, Green [16] = test: as above; conditions: 0 is no effect, 100 is complete control
[17] = test system: ragweed (common ragweed, Ambrosia elatior); test: as above; conditions: 0 is no effect, 100 is complete control
Summary of the method: as §1

[18] = test system: barnyardgrass (Echinochloa crus-galli); test: as above; conditions: 0 is no effect, 100 is complete control
Summary of the method: as §1

Structure (SMILES)	Blackgrass plant response rating ([1]; 31 g ai/ha)	Blackgrass plant response rating ([1]; 125 g ai/ha)	Plant response rating (0 to 100 scale), Ryegrass, It. [2]	Ryegrass, It. plant response rating [2]	Plant response rating (0 to 100 scale), Wheat [3]	Wheat plant response rating [3]	Plant response rating (0 to 100 scale), Pigweed [4]	Pigweed plant response rating [4]	Plant response rating (0 to 100 scale), Kochia (kochia (Kochia scoparia) [5])	Kochia plant response rating (kochia (Kochia scoparia) [5])	Plant response rating (0 to 100 scale), Foxtail, Green (Foxtail, Green [6])	Foxtail, Green plant response rating (Foxtail, Green [6])	Plant response rating (0 to 100 scale), Corn (corn (Zea mays))	Corn plant response rating (corn (Zea mays))	Plant response rating (0 to 100 scale), Ragweed [7]	Ragweed plant response rating [7]	Barnyardgrass plant response rating ([8]; 31 g ai/ha)	Barnyardgrass plant response rating ([8]; 125 g ai/ha)	Plant response rating (0 to 100 scale), Galium [9]	Galium plant response rating [9]	also measured
Cn1nc(Cl)c(O)c(-c2cccc3c2nnn3C)c1=O [Compound 61]	0	0	0	0	0	0	0	0	0	0	0	0	0	0	0	0	0	0	0	0	Rice plant response rating (0 to 100 scale, 0 is no effect, 100 is complete control) (rice (Oryza sativa)): 0; Sedge, Umbrella plant response rating (0 to 100 scale, 0 is no effect, 100 is complete control) [10]: 0; Ducksalad plant response rating (0 to 100 scale, 0 is no effect, 100 is complete control) [11]: 0; Barnyardgrass plant response rating (0 to 100 scale, 0 is no effect, 100 is complete control) [12]: 0; Plant response rating (0 to 100 scale), Ryegrass, It. ([13]; 31 g ai/ha): 0; Plant response rating (0 to 100 scale), Ryegrass, It. ([13]; 125 g ai/ha): 0; Plant response rating (0 to 100 scale), Pigweed ([14]; 31 g ai/ha): 0; Plant response rating (0 to 100 scale), Pigweed ([14]; 125 g ai/ha): 0; Plant response rating (0 to 100 scale), Kochia (kochia (Kochia scoparia) [15]; 31 g ai/ha): 0; Plant response rating (0 to 100 scale), Kochia (kochia (Kochia scoparia) [15]; 125 g ai/ha): 0; Plant response rating (0 to 100 scale), Foxtail, Green (Foxtail, Green [16]; 31 g ai/ha): 0; Plant response rating (0 to 100 scale), Foxtail, Green (Foxtail, Green [16]; 125 g ai/ha): 0; Plant response rating (0 to 100 scale), Ragweed ([17]; 31 g ai/ha): 0; Plant response rating (0 to 100 scale), Ragweed ([17]; 125 g ai/ha): 0; Plant response rating (0 to 100 scale), Barnyardgrass ([18]; 31 g ai/ha): 0; Plant response rating (0 to 100 scale), Barnyardgrass ([18]; 125 g ai/ha): 0
CCC(=O)Oc1c(C)nn(C)c(=O)c1-c1c(Br)ccc2c1cnn2C [Compound 64]	60	0	0	0	0	0	0	0	0	0	0	0	0	0	0	0	0	0	30	50	Rice plant response rating (0 to 100 scale, 0 is no effect, 100 is complete control) (rice (Oryza sativa)): 0; Sedge, Umbrella plant response rating (0 to 100 scale, 0 is no effect, 100 is complete control) [10]: 0; Ducksalad plant response rating (0 to 100 scale, 0 is no effect, 100 is complete control) [11]: 0; Barnyardgrass plant response rating (0 to 100 scale, 0 is no effect, 100 is complete control) [12]: 0; Plant response rating (0 to 100 scale), Ryegrass, It. ([13]; 31 g ai/ha): 0; Plant response rating (0 to 100 scale), Ryegrass, It. ([13]; 125 g ai/ha): 0; Plant response rating (0 to 100 scale), Pigweed ([14]; 31 g ai/ha): 0; Plant response rating (0 to 100 scale), Pigweed ([14]; 125 g ai/ha): 0; Plant response rating (0 to 100 scale), Kochia (kochia (Kochia scoparia) [15]; 31 g ai/ha): 0; Plant response rating (0 to 100 scale), Kochia (kochia (Kochia scoparia) [15]; 125 g ai/ha): 0; Plant response rating (0 to 100 scale), Foxtail, Green (Foxtail, Green [16]; 31 g ai/ha): 0; Plant response rating (0 to 100 scale), Foxtail, Green (Foxtail, Green [16]; 125 g ai/ha): 0; Plant response rating (0 to 100 scale), Ragweed ([17]; 31 g ai/ha): 0; Plant response rating (0 to 100 scale), Ragweed ([17]; 125 g ai/ha): 0; Plant response rating (0 to 100 scale), Barnyardgrass ([18]; 31 g ai/ha): 0; Plant response rating (0 to 100 scale), Barnyardgrass ([18]; 125 g ai/ha): 0
Cc1nn(C)c(=O)c(-c2c(Br)ccc3c2cnn3C)c1O [Compound 65]	0	0	0	0	0	0	0	0	0	0	0	0	0	0	0	0	0	0	0	0	Rice plant response rating (0 to 100 scale, 0 is no effect, 100 is complete control) (rice (Oryza sativa)): 0; Sedge, Umbrella plant response rating (0 to 100 scale, 0 is no effect, 100 is complete control) [10]: 0; Ducksalad plant response rating (0 to 100 scale, 0 is no effect, 100 is complete control) [11]: 0; Barnyardgrass plant response rating (0 to 100 scale, 0 is no effect, 100 is complete control) [12]: 0; Plant response rating (0 to 100 scale), Ryegrass, It. ([13]; 31 g ai/ha): 0; Plant response rating (0 to 100 scale), Ryegrass, It. ([13]; 125 g ai/ha): 0; Plant response rating (0 to 100 scale), Pigweed ([14]; 31 g ai/ha): 0; Plant response rating (0 to 100 scale), Pigweed ([14]; 125 g ai/ha): 0; Plant response rating (0 to 100 scale), Kochia (kochia (Kochia scoparia) [15]; 31 g ai/ha): 0; Plant response rating (0 to 100 scale), Kochia (kochia (Kochia scoparia) [15]; 125 g ai/ha): 0; Plant response rating (0 to 100 scale), Foxtail, Green (Foxtail, Green [16]; 31 g ai/ha): 0; Plant response rating (0 to 100 scale), Foxtail, Green (Foxtail, Green [16]; 125 g ai/ha): 0; Plant response rating (0 to 100 scale), Ragweed ([17]; 31 g ai/ha): 0; Plant response rating (0 to 100 scale), Ragweed ([17]; 125 g ai/ha): 0; Plant response rating (0 to 100 scale), Barnyardgrass ([18]; 31 g ai/ha): 0; Plant response rating (0 to 100 scale), Barnyardgrass ([18]; 125 g ai/ha): 0
